Source: patent publication US20070066682A1, “Arylalkylamine vanadium (V) salts for the treatment and/or prevention of Diabetes mellitus” (priority 2005, published 2007)
“Also recorded” adds a separate entry of the source.

What was measured:
[1] = system: isolated mouse adipocytes; assay: Glucose transport (2-DG) in isolated mouse adipocytes; format: cell-based; conditions: 100 μM
Experimental: Adipose cells from FVB mice were incubated for 45 minutes in basal conditions (Basal) or in the presence of 100 nM insulin (Ins), and different concentrations of hexaquis(benzylammonium) decavanadate (B6V10) in the absence or in the presence of 1 mM semicarbazide (SCZ) and thereafter, 2-DG transport was measured over 5 min.

[2] = system: streptozotocin-induced diabetic rats; assay: Chronic subcutaneous (osmotic minipump) treatment of streptozotocin (45 mg/kg) diabetic rats, glycemia; format: in vivo, rat; conditions: for glycemia during chronic subcutaneous treatment: 2.5 μmol/kg/day by osmotic minipumps, about two weeks, STZ 45 mg/kg rats, dihydrate
Experimental: Male Wistar rats weighting 180-220 g were purchased from Harlan (Interfauna Ibèrica S.A., Spain). Diabetes was induced by a single intraperitoneal injection of a freshly prepared solution of streptozotocin (in some studies the dose was 45 mg/kg body weight and in some others 100 mg/kg body weight dissolved in 50 mM citrate buffer, pH 4.5). Only diabetic animals with glycemia above 300 mg/dl were used. The animals were housed in animal quarters at 22° C., with a 12 h light/12 h dark cycle and were fed ad libitum. All procedures used were approved by the animal ethical committee of the University of Barcelona, Spain. Male mice C57 BL/Ks bearing the db/db mutation (Jackson Laboratories, Bar Harbor, Me.) were purchased from Harlan France (Gannat, France). C57BL/6J male mice were assigned for 16 weeks to very high-fat diet containing (in kcal): 72% from fat, 28% from proteins and <1% from carbohydrates (Burcelin et al., 2002, Am. J. Physiol. Endocrinol. Metab 282: E834-E842).
Osmotic minipumps delivering B6V10 (2.5 μmol/kg body wt/day) or decavanadate (2.5 μmol/kg body wt/day) were implanted subcutaneously in diabetic rats anaesthetised by ketamine hydrochloride (95 mg/kg) and xylasine (10 mg/kg). […] Glycemia was measured on arterio-venous blood collected from the tail vessels at 09:00 am for two weeks, before the administration of vanadate. Insulin concentrations were determined before and after treatment. In another set of experiments, B6V10 was orally administered at a single dose of 5 μmol/kg/day during the first week and 10 μmol/kg/day during 2 additional weeks by gastric gavage. A control group received the corresponding decavanadate salt in the absence of benzylamine. At the end of the treatment, animals were sacrificed and the liver, fat pad, heart and lung were kept at −80° C. and the plasma at −20° C. until their use for in vitro analysis.
In glucose tolerance tests and in chronic treatments, circulating glucose concentrations were determined by a rapid glucose analyser (Accutrend® Sensor Comfort, Roche, Basel. Switzerland). Plasma insulin (IRI) concentration was determined by ELISA method using a kit obtained from Crystal Chem Inc. (Downers Grove, Ill.). Plasma triglycerides (Biosystems, Barcelona, Spain) and NEFAS (Wako Chemicals, Neuss, Germany) were determined with standard […] methods.
The effect of chronic administration of hexaquis(benzylammonium) decavanadate on glycemia from diabetic rats was determined. Thus, diabetes was induced in rats by intravenous administration of streptozotocin, which destroys the β-pancreatic cells that produce insulin.
Chronic in vivo efficacy of B6V10 was evaluated in streptozotocin-induced diabetic rats and in db/db mice. Streptozotocin-induced (45 mg/kg) diabetic rats were subcutaneously treated with hexaquis(benzylammonium) decavanadate (2.5 μmol/kg) (B6V10, solid squares, FIG. 8A) or with decavanadate (2.5 μmol/kg) (V10, open circles, FIG. 8A) delivered subcutaneously by osmotic minipumps implanted in the dorsal region. Diabetic rats were also sham-operated (untreated, solid diamonds, FIG. 8A). […] These experiments were repeated using an oral administration protocol. Streptozotocin-induced (45 mg/kg) diabetic rats were orally treated with hexaquis(benzylammonium) decavanadate (5 μmol/kg from day 0 to day 7 and 10 μmol/kg/day from day 7 to day 17) (B6V10, solid squares, FIG. 8B) or received decavanadate (10 μmol/kg) (V10, open circles, FIG. 8B). […]

insulin receptor = assay: Tyrosine phosphorylation of insulin receptor in isolated rat adipocytes; format: cell-based; conditions: 25 μM
Experimental: Isolated fat cells were disrupted for total membrane preparation by hypo-osmotic lysis in a 20 mM HES buffer and an antiprotease and antiphosphatase cocktail as reported by Abella et al. (2003, Diabetes 52: 1004-1013). Protein concentrations were determined by the Bradford method (Bradford, 1976, Anal. Biochem. 72: 248-254) with gamma-globulin as protein concentration standard. Immunoprecipitation and immunoblot assays were performed as previously described by Abella et al. (2004, Id.) with the use of a monoclonal antiphosphotyrosine antibody for the immunoprecipitation and an anti-insulin receptor antibody for immunoblotting, respectively. SDS-polyacrylamide gel electrophoresis was performed on membrane proteins following conventional procedures. Proteins were transferred to Immobilon and immunoblotting was performed as reported by Castello et al. (1994, J. Biol. Chem. 269: 5905-5912).
The mechanism of action of B6V10 was investigated in isolated rat adipocytes. Adipose cells from Wistar rats were incubated for different times in the presence of 25 μM hexaquis(benzylammonium) decavanadate (B6V10). […] Subsequently, 2-deoxyglucose uptake (results shown in FIG. 7A), tyrosine phosphorylation of insulin receptor (FIG. 7B), phospho-Thr^308-protein kinase B (FIG. 7C) and phospho-Ser^473-protein kinase B (FIG. 7D) was measured. […]

adipocyte lipolysis = assay: Adipocyte lipolysis; format: cell-based

## hexaquis(benzylammonium) decavanadate (V) dihydrate [Entry B6V10]
[1]
  stimulation of glucose transport (% increase): 93%
[2]
  glycemia during chronic subcutaneous treatment: ameliorated hyperglycemia; also recorded: significant correction of hyperglycemia; also recorded: significant differences in the B6V10 group compared to the untreated group from day 8 of treatment
[2]; listed as hexaquis(benzylammonium) decavanadate
  glycemia during chronic subcutaneous treatment: rapid reduction of the hyperglycemia that was detected after only four days of treatment
[2]; fourteen days of treatment, basal conditions
  glucose transport of adipocytes isolated from treated rats: increased glucose transport under basal conditions equivalent to that seen in the presence of insulin
Insulin receptor
  tyrosine phosphorylation of insulin receptors: undetectable
Adipocyte lipolysis
  adipocyte lipolysis: inhibited adipocyte lipolysis
